The target of data set [1] is T1, α-glucosidase (Saccharomyces cerevisiae, UniProt P53341).
T1 construct: purchased Sigma-Aldrich
Nature of the data set: biochemical. The class given is biochemical. Conditions: for anti-α-glucosidase activity in words: in comparison to acarbose; for decrease of inhibitory activity relative to compound 9g: replacement or removal of 4-OH of 9g. As for the experimental part: Yeast form of α-glucosidase (EC3.2.1.20, Saccharomyces cerevisiae, 20 U mg^−1) and p-nitrophenyl glucopyranoside as substrate were purchased from Sigma-Aldrich. […] IC50 values were calculated by the percentage of enzyme inhibition and non-linear regression curve using the logit method.

In data set [2] the target is α-glucosidase. Also on record: method as in PMID 28110817. Conditions: Fig. 1, template B study; read-out: IC50 against α-glucosidase; cited from earlier work.
For data set [3], the target named is T1, α-glucosidase. Nature of the data set: Enzyme kinetics study for α-glucosidase inhibition. Format: biochemical. As to the method: The 20 μL of α-glucosidase solution (1 U mL^−1) was incubated with different concentrations of compound 9g (0, 2.25, 4.5, and 9 μM) for 15 min at 30 °C. After that, the enzymatic reaction was started by adding different concentrations of p-nitrophenyl glucopyranoside (substrate, 1–4 mM), and change in absorbance was measured for 20 min at 405 nm by spectrophotometer (Gen5, Power Wave xs2, BioTek, America).

Data set [4] concerns the target α-glucosidase. Conditions: read-out: IC50 against α-glucosidase; Fig. 1, template A study; cited from earlier work.
For data set [5], the system named is α-glucosidase. Nature of the data set: Literature α-glucosidase inhibition of quinoline template A. The class given is biochemical. Conditions: template A vs acarbose of that study.
The mark [6] stands for this setting: yeast α-glucosidase, p-nitrophenyl glucopyranoside substrate, pH 6.8, 37 °C, mean ± SD, read-out: IC50 against α-glucosidase.

The structures appear in SMILES notation. Read-outs that look alike come from different tables or passages of the source.

T1 sequence (P53341 whole entry): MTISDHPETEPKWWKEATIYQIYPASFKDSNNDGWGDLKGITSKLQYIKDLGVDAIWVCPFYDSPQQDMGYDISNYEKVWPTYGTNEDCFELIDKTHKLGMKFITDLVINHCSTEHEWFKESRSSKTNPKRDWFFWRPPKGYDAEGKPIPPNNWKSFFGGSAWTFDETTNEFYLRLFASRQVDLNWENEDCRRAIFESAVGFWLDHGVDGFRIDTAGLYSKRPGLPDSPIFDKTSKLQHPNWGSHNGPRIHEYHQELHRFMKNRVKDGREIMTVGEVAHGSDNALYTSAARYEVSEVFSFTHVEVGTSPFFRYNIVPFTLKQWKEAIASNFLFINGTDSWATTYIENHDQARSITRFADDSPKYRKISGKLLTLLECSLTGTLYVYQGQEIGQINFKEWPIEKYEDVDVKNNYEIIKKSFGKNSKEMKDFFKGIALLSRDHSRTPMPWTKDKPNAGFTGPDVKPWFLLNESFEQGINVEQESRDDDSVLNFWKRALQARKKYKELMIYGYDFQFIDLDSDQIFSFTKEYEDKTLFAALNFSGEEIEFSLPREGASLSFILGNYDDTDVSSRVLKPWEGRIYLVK

For the compound `O=C(CSc1nc2ccccc2cc1-c1nc2ccccc2c(=O)[nH]1)Nc1ccc(Cl)cc1` [9k, N-(4-Chlorophenyl)-2-{[3-(4-oxo-3,4-dihydroquinazolin-2-yl)quinolin-2-yl]thio}acetamide], the melting point (in general, the temperature of the solid-liquid transition) fell in the range of 209 to 211 °C. In data set [1], the “anti-α-glucosidase activity in words” value is given as “potent members”. Also, in data set [1] (setting [6]), the IC50 (usually the concentration that gives 50% inhibition) turned out to be 40.1 ± 1.2 µM.

`Cc1ccc(CNC(=O)CSc2nc3ccccc3cc2-c2nc3ccccc3c(=O)[nH]2)cc1` [9o, N-(4-Methylbenzyl)-2-{[3-(4-oxo-3,4-dihydroquinazolin-2-yl)quinolin-2-yl]thio}acetamide]: the melting point was in the range of 202 to 204 °C. In addition, the IC50 in data set [1] (setting [6]) is more than 750 µM.

Turning to `O=C(CSc1nc2ccccc2cc1-c1nc2ccccc2c(=O)[nH]1)Nc1ccc(F)cc1` [9i, N-(4-Fluorophenyl)-2-{[3-(4-oxo-3,4-dihydroquinazolin-2-yl)quinolin-2-yl]thio}acetamide], the melting point lay within 206 to 208 °C. The “anti-α-glucosidase activity in words” value in data set [1] is given as “eradicated inhibitory activity”. In data set [1] (setting [6]), the IC50 is more than 750 µM.

Consider `CCc1ccc(NC(=O)CSc2nc3ccccc3cc2-c2nc3ccccc3c(=O)[nH]2)cc1` [9e, N-(4-Ethylphenyl)-2-{[3-(4-oxo-3,4-dihydroquinazolin-2-yl)quinolin-2-yl]thio}acetamide], for which the melting point is 208 to 210 °C. For the same compound, the IC50 in data set [1] (setting [6]) is more than 750 µM.

`O=C(CSc1nc2ccccc2cc1-c1nc2ccccc2c(=O)[nH]1)NCc1ccccc1` [9n, N-Benzyl-2-{[3-(4-oxo-3,4-dihydroquinazolin-2-yl)quinolin-2-yl]thio}acetamide] registered a melting point of 201 to 203 °C. Moreover, in data set [1] (setting [6]), the IC50 was more than 750 µM.

For the compound `O=c1[nH]c(-c2ccc(Cl)cc2)nc2ccccc12` [Compound B], the IC50 in data set [2] was 12.5 ± 0.1 µM.

As for `O=C(CSc1nc2ccccc2cc1-c1nc2ccccc2c(=O)[nH]1)NCc1ccc(F)cc1` [9p, N-(4-Fluorobenzyl)-2-{[3-(4-oxo-3,4-dihydroquinazolin-2-yl)quinolin-2-yl]thio}acetamide], the melting point is 205 to 207 °C. Further, in data set [1] (setting [6]), the IC50 was more than 750 µM.

For `O=C(CSc1nc2ccccc2cc1-c1nc2ccccc2c(=O)[nH]1)Nc1cccc(Cl)c1` [9j, N-(3-Chlorophenyl)-2-{[3-(4-oxo-3,4-dihydroquinazolin-2-yl)quinolin-2-yl]thio}acetamide], the melting point was 212 to 214 °C. Further, the “anti-α-glucosidase activity in words” value in data set [1] is “potent members”. The IC50 in data set [1] (setting [6]) was 53.4 ± 2.3 µM.

Compound `O=C(CSc1nc2ccccc2cc1-c1nc2ccccc2c(=O)[nH]1)Nc1ccc(O)cc1` [9g, N-(4-Hydroxyphenyl)-2-{[3-(4-oxo-3,4-dihydroquinazolin-2-yl)quinolin-2-yl]thio}acetamide] had a melting point of 210 to 212 °C. For the same compound, the type of inhibition entry in data set [3] (Lineweaver–Burk plots) is given as “competitive”. Besides, the Ki (usually the dissociation constant of the complex between target and ligand, obtained from inhibition or displacement) in data set [3] (secondary re-plot of Lineweaver–Burk plots, 0, 2.25, 4.5, 9.0 μM inhibitor) came out at 7 µM. Besides, the “fold more potent than the most potent compound among template compounds C” value in data set [1] (comparison with literature compounds C) is 8.8 fold. Moreover, the “anti-α-glucosidase activity in words” value in data set [1] is recorded as “potent members”. Moreover, in data set [1] (setting [6]), the 50% inhibitory concentration (IC50) stood at 9 ± 0.3 µM.

For `Cc1ccc(NC(=O)CSc2nc3ccccc3cc2-c2nc3ccccc3c(=O)[nH]2)cc1` [9b, 2-{[3-(4-Oxo-3,4-dihydroquinazolin-2-yl)quinolin-2-yl]thio}-N-(p-tolyl)acetamide], the melting point was in the range of 203 to 205 °C. In data set [1] (setting [6]), the IC50 was more than 750 µM.

`O=C(CSc1nc2ccccc2cc1-c1nc2ccccc2c(=O)[nH]1)Nc1ccccc1` [9a, 2-{[3-(4-Oxo-3,4-dihydroquinazolin-2-yl)quinolin-2-yl]thio}-N-phenylacetamide]: the melting point lay in the range of 200 to 202 °C. Moreover, in data set [1], the “anti-α-glucosidase activity in words” value is “potent members” and the “decrease of inhibitory activity relative to compound 9g” value stood at 2.8 fold. The IC50 in data set [1] (setting [6]) amounted to 25.8 ± 0.6 µM.

Compound `Cc1cccc(NC(=O)CSc2nc3ccccc3cc2-c2nc3ccccc3c(=O)[nH]2)c1C` [9c, N-(2,3-Dimethylphenyl)-2-{[3-(4-oxo-3,4-dihydroquinazolin-2-yl)quinolin-2-yl]thio}acetamide] yielded a melting point of 208 to 210 °C. Further, the half-inhibitory concentration (IC50) in data set [1] (setting [6]) is more than 750 µM.

Turning to `O=C(O)c1ccc2ccccc2n1` [Compound A], in data set [4], the IC50 is 9.1 ± 2.3 µM. In data set [5], the “fold more potent than acarbose” value turned out to be 7.3 fold.

For `O=C(CSc1nc2ccccc2cc1-c1nc2ccccc2c(=O)[nH]1)Nc1ccccc1F` [9h, N-(2-Fluorophenyl)-2-{[3-(4-oxo-3,4-dihydroquinazolin-2-yl)quinolin-2-yl]thio}acetamide], the melting point was 209 to 211 °C. Besides, the “anti-α-glucosidase activity in words” value in data set [1] is on record as “eradicated inhibitory activity”. Further, in data set [1] (setting [6]), the IC50 was more than 750 µM.

For the compound `O=C(CSc1nc2ccccc2cc1-c1nc2ccccc2c(=O)[nH]1)Nc1ccc(Br)cc1` [9l, N-(4-Bromophenyl)-2-{[3-(4-oxo-3,4-dihydroquinazolin-2-yl)quinolin-2-yl]thio}acetamide], the melting point fell in the range of 208 to 210 °C. In data set [1], the “anti-α-glucosidase activity in words” value is “eradicated inhibitory activity”. The IC50 in data set [1] (setting [6]) is more than 750 µM.

For `O=C(CSc1nc2ccccc2cc1-c1nc2ccccc2c(=O)[nH]1)Nc1ccc([N+](=O)[O-])cc1` [9m, N-(4-Nitrophenyl)-2-{[3-(4-oxo-3,4-dihydroquinazolin-2-yl)quinolin-2-yl]thio}acetamide], the melting point was 217 to 219 °C. For the same compound, the “anti-α-glucosidase activity in words” value in data set [1] was “potent members”. Further, the IC50 in data set [1] (setting [6]) stood at 52 ± 1.4 µM.

As to `Cc1cccc(C)c1NC(=O)CSc1nc2ccccc2cc1-c1nc2ccccc2c(=O)[nH]1` [9d, N-(2,6-Dimethylphenyl)-2-{[3-(4-oxo-3,4-dihydroquinazolin-2-yl)quinolin-2-yl]thio}acetamide], the melting point lay in the range of 220 to 222 °C. In addition, in data set [1] (setting [6]), the IC50 was more than 750 µM.

The compound `COc1ccc(NC(=O)CSc2nc3ccccc3cc2-c2nc3ccccc3c(=O)[nH]2)cc1` [9f, N-(4-Methoxyphenyl)-2-{[3-(4-oxo-3,4-dihydroquinazolin-2-yl)quinolin-2-yl]thio}acetamide] came in with a melting point of 203 to 205 °C. In data set [1], half-maximal inhibition (IC50) required 37.7 ± 2.9 µM, the “anti-α-glucosidase activity in words” value was “potent members” and the “decrease of inhibitory activity relative to compound 9g” value is given as 4.1 fold.

The record behind these values is paper PMC10291282, “Synthesis, ADMT prediction, and in vitro and in silico α-glucosidase inhibition evaluations of new quinoline–quinazolinone–thioacetamides” (RSC Advances, 2023).
